System: 324938-238-R-J1-PDC complex spheroid growth, % test/control
Experiment: Anticancer human tumor 324938-238-R-J1-PDC patient-derived bladder carcinoma cell line growth inhibition [AhR]
Conditions: for IC50: curve of first compound; for viability, T/C: stronger effect = lower value
Description: Multicellular complex tumor spheroid response to aryl hydrocarbon receptor antagonists in combination with a variety of drugs and investigational agents in selected tumor cell lines
The current study was undertaken to assess response to aryl hydrocarbon receptor antagonists in combination with standard-of-care drugs and investigational agents in solid tumor complex spheroid models. Complex spheroids include a stromal component modeled by human endothelial cells (HUVEC) and fibroblasts modeled by human mesenchymal stem cells (MSCs). The concentration ranges selected for each drug and investigational agent were based upon clinically achievable concentrations if the clinical Cmax of the agent was known.
Compounds. The drugs and investigational agents: BAY 2416964 (NSC825713), GNF351 (NSC835774), CH-223191 (NSC835775), CPI-455 (NSC825282), aza-TdCyd (NSC777586), decitabine (NSC127716), belinostat (NSC758774), entinostat (NSC756642), pevonedistat (NSC761192), tazemetostat (NSC777109), talazoparib (NSC765396), olaparib (NSC753686), selinexor (NSC780203), nedisertib (M3814, NSC802822), bortezomib (NSC756655), venetoclax (NSC766270), doxorubicin (NSC123127), elimusertib (BAY189344, NSC800525), ceralasertib (AZD6738, NSC777638), TAK-243 (NSC785004), alisertib (NSC759677), etoposide (NSC141540), topotecan (NSC609699), eribulin (NSC707389), gemcitabine (NSC613327), carboplatin (NSC241240), cisplatin (NSC119875), and SN-38 (NSC673596) were obtained from the National Cancer Institute (NCI) Developmental Therapeutics Program Chemical Repository (32). The FDA-approved anticancer drug set is available from the Developmental Therapeutics Program at https://dtp.cancer.gov/organization/dscb/obtaining/available plates.htm. […] The stock solutions were prepared in dimethyl sulfoxide (DMSO, Sigma-Aldrich, St. Louis, MO, cat. D2650), except for the platinum compounds which were prepared in saline (Quality Biological, Gaithersburg, MD, cat. 114-055-101), at 800-fold the tested concentration and stored at -70 degrees C prior to their use. All drugs and investigational agents were tested over a range starting from a high concentration at or near the clinical Cmax and decreasing in half-log increments. If the clinical Cmax for an agent had not been determined, the highest concentration tested was 10 microM (Table 1).
Cell Culture. All cells were maintained in an incubator at 37 degrees C and 5% CO2 with 95% humidity. The PDC lines were cultured according to standard operating procedures established by the NCI PDMR (https://pdmr.cancer.gov). Briefly, all PDCs were thawed and cultured in Matrigel-coated flasks prepared with a working solution of 1X Ham's F-12 nutrient mix, without supplementation (Invitrogen, Waltham, MA, cat. 11765054), 100 U/mL penicillin-streptomycin (Invitrogen, cat. 15140122), and 2.5% Matrigel (Corning Inc., Corning, NY, cat. 354248) for the first three passages. All PDCs were cultured in complete DMEM/F-12 media containing advanced DMEM/F-12 (Invitrogen, cat. 12634028), 4.9% defined fetal bovine serum, heat inactivated (HyClone Laboratories Inc., Logan, UT, cat. SH30070.03HI), 389 ng/mL hydrocortisone (Sigma-Aldrich, cat. H4001), 9.7 ng/mL human EGF recombinant protein (Invitrogen, cat. PHG0313), 23.4 microg/mL adenine (Sigma-Aldrich, cat. A2786), 97.3 U/mL penicillin-streptomycin (Invitrogen, cat. 15140122), 1.9 mM L-glutamine (Invitrogen, cat. 25030081), and 9.7 microM Y-27632 dihydrochloride (Tocris Bioscience, Bristol, United Kingdom, cat. 1254). The PDCs were cultured in complete DMEM/F12 media without 10 microM Y-27632 dihydrochloride for at least two passages prior to the screen. The established cell lines NCI-H1341 and […] were cultured in DMEM/F-12, HEPES (Invitrogen, cat. 11330032), 5% defined fetal bovine serum (HyClone Laboratories Inc., cat. SH30070.03), ITS premix universal culture supplement [insulin (5 microg/mL), transferrin (5 microg/mL), and selenious acid (5 ng/mL)] […]
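Further: spheroids exposed to agents for seven days before viability read.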

`CC1COCCN1c1cc(-c2ccnn2C)c2ccnc(-c3ccn[nH]3)c2n1` (stereo not given) + Cc1ccccc1N=Nc1ccc(NC(=O)c2ccnn2C)c(C)c1 was tested, and the IC50 (second compound 0.1 µM) was 277 nM, the IC50 (second compound 0.316 µM) was 379 nM and the IC50 (second compound 1 µM) was 245 nM. It also gave an IC50 (second compound 3.16 µM) of 309 nM, an IC50 (second compound 10 µM) of 324 nM and a viability, T/C (second compound 0.1 µM, first compound 0.00316 µM) of 102%. For the same compound, the viability, T/C (second compound 0.1 µM, first compound 0.01 µM) was 104%, the viability, T/C (second compound 0.1 µM, first compound 0.0316 µM) was 102% and the viability, T/C (second compound 0.1 µM, first compound 0.1 µM) was 74.7%. The viability, T/C (second compound 0.1 µM, first compound 0.316 µM) was 48.8%, the viability, T/C (second compound 0.1 µM, first compound 1 µM) was 32.7% and the viability, T/C (second compound 0.316 µM, first compound 0.00316 µM) was 104%. It also gave a viability, T/C (second compound 0.316 µM, first compound 0.01 µM) of 90.8%, a viability, T/C (second compound 0.316 µM, first compound 0.0316 µM) of 88.8% and a viability, T/C (second compound 0.316 µM, first compound 0.1 µM) of 71.5%. It also gave a viability, T/C (second compound 0.316 µM, first compound 0.316 µM) of 53.6%, a viability, T/C (second compound 0.316 µM, first compound 1 µM) of 30.4% and a viability, T/C (second compound 1 µM, first compound 0.00316 µM) of 95%. It also gave a viability, T/C (second compound 1 µM, first compound 0.01 µM) of 95.4%, a viability, T/C (second compound 1 µM, first compound 0.0316 µM) of 87.6% and a viability, T/C (second compound 1 µM, first compound 0.1 µM) of 65.8%. For the same compound, the viability, T/C (second compound 1 µM, first compound 0.316 µM) was 46.6%, the viability, T/C (second compound 1 µM, first compound 1 µM) was 31.5% and the viability, T/C (second compound 3.16 µM, first compound 0.00316 µM) was 78.8%. It also gave a viability, T/C (second compound 3.16 µM, first compound 0.01 µM) of 88.3%, a viability, T/C (second compound 3.16 µM, first compound 0.0316 µM) of 73.8% and a viability, T/C (second compound 3.16 µM, first compound 0.1 µM) of 67.5%. It also gave a viability, T/C (second compound 3.16 µM, first compound 0.316 µM) of 49.8%, a viability, T/C (second compound 3.16 µM, first compound 1 µM) of 31.6% and a viability, T/C (second compound 10 µM, first compound 0.00316 µM) of 74.3%. The viability, T/C (second compound 10 µM, first compound 0.01 µM) was 81.2%, the viability, T/C (second compound 10 µM, first compound 0.0316 µM) was 71% and the viability, T/C (second compound 10 µM, first compound 0.1 µM) was 64.4%. The viability, T/C (second compound 10 µM, first compound 0.316 µM) was 50.8% and the viability, T/C (second compound 10 µM, first compound 1 µM) was 35%.

`CCc1c2c(nc3ccc(O)cc13)-c1cc3c(c(=O)n1C2)COC(=O)[C@]3(O)CC` + Cc1ccccc1N=Nc1ccc(NC(=O)c2ccnn2C)c(C)c1 showed an IC50 (second compound 0.1 µM) of 3.21 nM, an IC50 (second compound 0.316 µM) of 2.48 nM and an IC50 (second compound 1 µM) of 1.88 nM. For the same compound, the IC50 (second compound 3.16 µM) was 1.25 nM, the IC50 (second compound 10 µM) was 1.44 nM and the viability, T/C (second compound 0.1 µM, first compound 0.000949 µM) was 62.4%. It also gave a viability, T/C (second compound 0.1 µM, first compound 0.003 µM) of 52%, a viability, T/C (second compound 0.1 µM, first compound 0.00949 µM) of 18.5% and a viability, T/C (second compound 0.1 µM, first compound 0.03 µM) of 15.2%. For the same compound, the viability, T/C (second compound 0.1 µM, first compound 0.0949 µM) was 16.2%, the viability, T/C (second compound 0.1 µM, first compound 0.3 µM) was 15.5% and the viability, T/C (second compound 0.316 µM, first compound 0.000949 µM) was 57.4%. For the same compound, the viability, T/C (second compound 0.316 µM, first compound 0.003 µM) was 48.5%, the viability, T/C (second compound 0.316 µM, first compound 0.00949 µM) was 17.1% and the viability, T/C (second compound 0.316 µM, first compound 0.03 µM) was 16.4%. The viability, T/C (second compound 0.316 µM, first compound 0.0949 µM) was 14.2%, the viability, T/C (second compound 0.316 µM, first compound 0.3 µM) was 16.1% and the viability, T/C (second compound 1 µM, first compound 0.000949 µM) was 52.4%. It also gave a viability, T/C (second compound 1 µM, first compound 0.003 µM) of 48.4%, a viability, T/C (second compound 1 µM, first compound 0.00949 µM) of 17.9% and a viability, T/C (second compound 1 µM, first compound 0.03 µM) of 12.9%. It also gave a viability, T/C (second compound 1 µM, first compound 0.0949 µM) of 15.8%, a viability, T/C (second compound 1 µM, first compound 0.3 µM) of 15.1% and a viability, T/C (second compound 3.16 µM, first compound 0.000949 µM) of 50.9%. It also gave a viability, T/C (second compound 3.16 µM, first compound 0.003 µM) of 47.9%, a viability, T/C (second compound 3.16 µM, first compound 0.00949 µM) of 14.9% and a viability, T/C (second compound 3.16 µM, first compound 0.03 µM) of 12.8%. The viability, T/C (second compound 3.16 µM, first compound 0.0949 µM) was 13.8%, the viability, T/C (second compound 3.16 µM, first compound 0.3 µM) was 15.4% and the viability, T/C (second compound 10 µM, first compound 0.000949 µM) was 52.3%. It also gave a viability, T/C (second compound 10 µM, first compound 0.003 µM) of 46%, a viability, T/C (second compound 10 µM, first compound 0.00949 µM) of 19.9% and a viability, T/C (second compound 10 µM, first compound 0.03 µM) of 12.9%. It also gave a viability, T/C (second compound 10 µM, first compound 0.0949 µM) of 14% and a viability, T/C (second compound 10 µM, first compound 0.3 µM) of 16.2%.

— PubChem BioAssay AID1918995 (Molecular Pharmacology Branch, DTP, NCI, 2023)
